Patent US11272709B2, “Amidine substituted benzoyl derivatives useful as herbicides” (Syngenta Participations AG, priority 2018, dated 2022)

Assays:
Type in all cases: in vivo
Details in all cases: evaluated after 13 days
[1] = system: Ipomoea hederacea (IPOHE); assay: Post-emergence herbicidal glasshouse test, Ipomoea hederacea (IPOHE)
Description: (§1) Seeds of a variety of test species are sown in standard soil in pots (Lolium perenne (LOLPE), Amaranthus retoflexus (AMARE), Abutilon theophrasti (ABUTH), Setaria faberi (SETFA), Echinochloa crus-galli (ECHCG), Ipomoea hederacea (IPOHE)). After cultivation for one day (pre-emergence) or after 8 days cultivation (post-emergence) under controlled conditions in a glasshouse (at 24/16° C., day/night; 14 hours light; 65% humidity), the plants are sprayed with an aqueous spray solution derived from the formulation of the technical active ingredient in acetone/water (50:50) solution containing 0.5% Tween 20 (polyoxyethelyene sorbitan monolaurate, CAS RN 9005-64-5). Compounds are applied at 500 g/h unless otherwise indicated. The test plants are then grown in a glasshouse under controlled conditions in a glasshouse (at 24/16° C., day/night; 14 hours light; 65% humidity) and watered twice daily. After 13 days for pre and post-emergence, the test is evaluated for the percentage damage caused to the plant. The biological activities are shown in the following table on a five point scale (5=80-100%; 4=60-79%; 3=40-59%; 2=20-39%; 1=0-19%).

[2] = system: Echinochloa crus-galli (ECHCG); assay: Post-emergence herbicidal glasshouse test, Echinochloa crus-galli (ECHCG)
Description: as §1

[3] = system: Abutilon theophrasti (ABUTH); assay: Post-emergence herbicidal glasshouse test, Abutilon theophrasti (ABUTH)
Description: as §1

[4] = system: Amaranthus retoflexus (AMARE); assay: Pre-emergence herbicidal glasshouse test, Amaranthus retoflexus (AMARE)
Description: as §1

[5] = system: Setaria faberi (SETFA); assay: Pre-emergence herbicidal glasshouse test, Setaria faberi (SETFA)
Description: as §1

[6] = system: Echinochloa crus-galli (ECHCG); assay: Pre-emergence herbicidal glasshouse test, Echinochloa crus-galli (ECHCG)
Description: as §1

[7] = system: Setaria faberi (SETFA); assay: Post-emergence herbicidal glasshouse test, Setaria faberi (SETFA)
Description: as §1

[8] = system: Abutilon theophrasti (ABUTH); assay: Pre-emergence herbicidal glasshouse test, Abutilon theophrasti (ABUTH)
Description: as §1

[9] = system: Ipomoea hederacea (IPOHE); assay: Pre-emergence herbicidal glasshouse test, Ipomoea hederacea (IPOHE)
Description: as §1

[10] = system: Amaranthus retoflexus (AMARE); assay: Post-emergence herbicidal glasshouse test, Amaranthus retoflexus (AMARE)
Description: as §1

Row | SMILES | POST Application IPOHE, percentage damage (five point scale) ([1]; 500 g/h) | POST Application ECHCG, percentage damage (five point scale) ([2]; 500 g/h) | POST Application ABUTH, percentage damage (five point scale) ([3]; 500 g/h) | PRE Application AMARE, percentage damage (five point scale) ([4]; 500 g/h) | PRE Application SETFA, percentage damage (five point scale) ([5]; 500 g/h) | PRE Application ECHCG, percentage damage (five point scale) ([6]; 500 g/h) | POST Application SETFA, percentage damage (five point scale) ([7]; 500 g/h) | PRE Application ABUTH, percentage damage (five point scale) ([8]; 500 g/h) | PRE Application IPOHE, percentage damage (five point scale) ([9]; 500 g/h) | POST Application AMARE, percentage damage (five point scale) ([10]; 500 g/h) | POST Application IPOHE, percentage damage (five point scale) ([1]; applied at 125 g/ha) | POST Application ECHCG, percentage damage (five point scale) ([2]; applied at 125 g/ha) | POST Application ABUTH, percentage damage (five point scale) ([3]; applied at 125 g/ha) | PRE Application AMARE, percentage damage (five point scale) ([4]; applied at 125 g/ha) | PRE Application SETFA, percentage damage (five point scale) ([5]; applied at 125 g/ha) | PRE Application ECHCG, percentage damage (five point scale) ([6]; applied at 125 g/ha) | POST Application SETFA, percentage damage (five point scale) ([7]; applied at 125 g/ha) | PRE Application ABUTH, percentage damage (five point scale) ([8]; applied at 125 g/ha) | PRE Application IPOHE, percentage damage (five point scale) ([9]; applied at 125 g/ha) | POST Application AMARE, percentage damage (five point scale) ([10]; applied at 125 g/ha)
1 | Cc1c(C(=O)Nc2nnnn2C)ccc(C(F)(F)F)c1N=CN(C)C [Compound 1.017] | 5 (5=80-100%) | 5 (5=80-100%) | 5 (5=80-100%) | 5 (5=80-100%) | 5 (5=80-100%) | 5 (5=80-100%) | 5 (5=80-100%) | 5 (5=80-100%) | 5 (5=80-100%) | 5 (5=80-100%) |  |  |  |  |  |  |  |  |  | 
2 | Cc1c(C(=O)Nc2nnnn2C)ccc(S(C)(=O)=O)c1/N=C/N(C)C [Compound 1.025, 3-[(E)-dimethylaminomethyleneamino]-2-methyl-4-methylsulfonyl-N-(1-methyltetrazol-5-yl)benzamide] | 5 (5=80-100%) | 5 (5=80-100%) | 5 (5=80-100%) | 5 (5=80-100%) | 5 (5=80-100%) | 5 (5=80-100%) | 5 (5=80-100%) | 5 (5=80-100%) | 5 (5=80-100%) | 5 (5=80-100%) |  |  |  |  |  |  |  |  |  | 
3 | CCN(C)C=Nc1c(S(C)(=O)=O)ccc(C(=O)Nc2nnnn2C)c1C [Compound 1.027] | 5 (5=80-100%) | 5 (5=80-100%) | 5 (5=80-100%) | 5 (5=80-100%) | 5 (5=80-100%) | 5 (5=80-100%) | 5 (5=80-100%) | 5 (5=80-100%) | 5 (5=80-100%) | 5 (5=80-100%) |  |  |  |  |  |  |  |  |  | 
4 | CCN(C=Nc1c(S(C)(=O)=O)ccc(C(=O)Nc2nnnn2C)c1C)CC [Compound 1.031] | 5 (5=80-100%) | 5 (5=80-100%) | 5 (5=80-100%) | 5 (5=80-100%) | 5 (5=80-100%) | 5 (5=80-100%) | 5 (5=80-100%) | 5 (5=80-100%) | 4 (4=60-79%) | 5 (5=80-100%) |  |  |  |  |  |  |  |  |  | 
5 | CN(C)C=Nc1c(Cl)ccc(C(=O)Nc2nnnn2C)c1Cl [Compound 1.041] | 5 (5=80-100%) | 5 (5=80-100%) | 5 (5=80-100%) | 5 (5=80-100%) |  | 5 (5=80-100%) | 5 (5=80-100%) | 5 (5=80-100%) | 5 (5=80-100%) | 5 (5=80-100%) |  |  |  |  |  |  |  |  |  | 
6 | CCN(C=Nc1c(C(F)(F)F)ccc(C(=O)Nc2nnnn2C)c1Cl)CC [Compound 1.055] | 5 (5=80-100%) | 5 (5=80-100%) | 5 (5=80-100%) | 5 (5=80-100%) | 5 (5=80-100%) | 5 (5=80-100%) | 5 (5=80-100%) | 5 (5=80-100%) | 5 (5=80-100%) | 5 (5=80-100%) |  |  |  |  |  |  |  |  |  | 
7 | CN(C)C=Nc1c(S(C)(=O)=O)ccc(C(=O)Nc2nnnn2C)c1Cl [Compound 1.057] |  |  |  |  |  |  |  |  |  |  | 5 (5=80-100%) | 5 (5=80-100%) | 5 (5=80-100%) | 5 (5=80-100%) | 5 (5=80-100%) | 5 (5=80-100%) | 5 (5=80-100%) | 5 (5=80-100%) | 5 (5=80-100%) | 5 (5=80-100%)
8 | CC(=NOCc1c(S(C)(=O)=O)ccc(C(=O)Nc2nnnn2C)c1Cl)N(C)C [Compound 1.129] | 5 (5=80-100%) | 5 (5=80-100%) | 5 (5=80-100%) | 5 (5=80-100%) | 5 (5=80-100%) | 5 (5=80-100%) | 5 (5=80-100%) | 5 (5=80-100%) | 5 (5=80-100%) | 5 (5=80-100%) |  |  |  |  |  |  |  |  |  | 
9 | CN(/C=N/c1c(C(F)(F)F)ccc(C(=O)Nc2nnnn2C)c1Cl)CC(F)(F)F [Compound 1.130, 2-chloro-N-(1-methyltetrazol-5-yl)-3-[(E)-[methyl(2,2,2-trifluoroethyl)amino]methyleneamino]-4-(trifluoromethyl)benzamide] | 5 (5=80-100%) | 5 (5=80-100%) | 5 (5=80-100%) | 5 (5=80-100%) | 5 (5=80-100%) | 5 (5=80-100%) | 5 (5=80-100%) | 5 (5=80-100%) | 5 (5=80-100%) | 5 (5=80-100%) |  |  |  |  |  |  |  |  |  | 
10 | CN(C=Nc1c(C(F)(F)F)ccc(C(=O)Nc2nnnn2C)c1Cl)c1ccccc1 [Compound 1.131] | 5 (5=80-100%) | 5 (5=80-100%) | 5 (5=80-100%) | 5 (5=80-100%) | 5 (5=80-100%) | 5 (5=80-100%) | 5 (5=80-100%) | 5 (5=80-100%) | 5 (5=80-100%) | 5 (5=80-100%) |  |  |  |  |  |  |  |  |  | 
